Experimental data taken from ChEMBL document CHEMBL1126861 (J Med Chem, 1993).
Where a SMILES comes first, the peptide text is derived from it.

Assays:
Mu-type opioid receptor = Mu-type opioid receptor (Rattus norvegicus, UniProt P33535); assay: Tested for binding affinity against mu opioid receptor fby displacing [3H]- DAMGO radioligand from rat brain membrane preparations
[1] = target: Delta-type opioid receptor (Rattus norvegicus, UniProt P33533); assay: Tested for binding affinity against delta opioid receptor by displacing [3H]- DSLET radioligand from rat brain membrane preparations
Chain of Delta-type opioid receptor (P33533 whole entry): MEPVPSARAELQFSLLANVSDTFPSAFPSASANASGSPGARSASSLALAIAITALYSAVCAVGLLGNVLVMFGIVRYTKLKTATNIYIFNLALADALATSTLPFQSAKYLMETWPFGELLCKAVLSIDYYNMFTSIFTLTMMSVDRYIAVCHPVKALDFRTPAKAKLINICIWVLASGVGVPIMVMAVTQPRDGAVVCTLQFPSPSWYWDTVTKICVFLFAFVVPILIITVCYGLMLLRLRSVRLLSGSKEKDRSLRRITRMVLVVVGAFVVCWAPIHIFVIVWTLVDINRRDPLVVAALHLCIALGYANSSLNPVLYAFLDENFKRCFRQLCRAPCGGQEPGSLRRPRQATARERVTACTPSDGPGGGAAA

Chain of Mu-type opioid receptor (P33535 whole entry): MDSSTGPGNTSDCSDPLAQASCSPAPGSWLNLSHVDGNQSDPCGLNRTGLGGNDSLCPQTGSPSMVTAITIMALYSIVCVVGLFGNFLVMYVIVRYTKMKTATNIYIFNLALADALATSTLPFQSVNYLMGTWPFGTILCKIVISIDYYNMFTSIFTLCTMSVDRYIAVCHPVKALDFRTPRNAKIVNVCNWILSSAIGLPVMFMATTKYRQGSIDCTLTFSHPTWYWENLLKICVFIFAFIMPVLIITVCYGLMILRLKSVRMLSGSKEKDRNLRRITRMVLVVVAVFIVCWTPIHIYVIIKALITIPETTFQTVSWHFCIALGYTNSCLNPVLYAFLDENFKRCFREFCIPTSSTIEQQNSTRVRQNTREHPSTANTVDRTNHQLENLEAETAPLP

SMILES | Ki (Mu-type opioid receptor) [µM] | Ki [1] [nM]
N[C@@H](Cc1ccc(O)cc1)C(=O)N1Cc2ccccc2C[C@H]1C(=O)N[C@@H](Cc1ccccc1)C(=O)N[C@@H](Cc1ccccc1)C(=O)O (HELM PEPTIDE1{Y.[Tic].F.F}$$$$V2.0) | 3.23 | 0.308
CC(C)[C@H](NC(=O)[C@H](CC(=O)O)NC(=O)[C@H](Cc1ccccc1)NC(=O)[C@@H](C)NC(=O)[C@@H](N)Cc1ccc(O)cc1)C(=O)N[C@H](C(=O)NCC(N)=O)C(C)C [DELTORPHIN C] | 3.93 | 6.43
N[C@@H](Cc1ccc(O)cc1)C(=O)N1Cc2ccccc2C[C@H]1C(=O)N[C@@H](Cc1ccccc1)C(=O)O (HELM PEPTIDE1{Y.[Tic].F}$$$$V2.0) | – | 1.94
Oc1ccc2c3c1O[C@H]1c4[nH]c5ccccc5c4C[C@@]4(O)[C@@H](C2)N(CC2CC2)CC[C@]314 [NALTRINDOLE] | – | 0.182
